# Measurements published in patent publication US8921373B2, “Compounds having TRPV1 antagonistic activity and uses thereof” (Shionogi & Co., Ltd., priority 2010, dated 2014).
# Key:
# human recombinant TRPV1 [1] = target: T1, human recombinant TRPV1 (Homo sapiens (Human), UniProt Q8NER1); test: TRPV1 Capsaicin-Based Assay (Protocol 2, TRPV1/CHO cells, Fluo-4, FLIPR); assay type: cell-based; conditions: TRPV1/CHO cells, capsaicin 100 nM final
# Procedure: (§1) For Protocol 2, a Chinese Hamster Ovary cell line (CHO) that has been engineered to constitutively express human recombinant TRPV1 was used (TRPV1/CHO cells). The TRPV1/CHO cell line was generated as described below.
# One day prior to assay, TRPV1/CHO cells were seeded in 96-well clear-bottom black plates (20,000 cells/well) in growth media. On the day of the experiment, the cells were washed with 0.2 mL 1× Hank's Balanced Salt Solution (Life Technologies) containing 1.6 mM CaCl2 and 20 mM HEPES, pH 7.4 (“wash buffer”). Subsequently, the cells were loaded by incubation in 0.1 mL of wash buffer containing Fluo-4 at 3 μM final concentration. After 1 hour, the cells were washed twice with 0.2 mL wash buffer and resuspended in 0.1 mL wash buffer. The plates were then transferred to a Fluorescence Imaging Plate Reader (Molecular Devices). Fluorescence intensity was monitored for 15 seconds to establish a baseline. Subsequently, test compounds diluted in assay buffer (1× Hank's Balanced Salt Solution containing 1 mM CaCl2 and 20 mM HEPES, pH 7.4) containing 1% DMSO were added to the cell plate and fluorescence was monitored for 2 minutes. […] Human TRPV1 was then activated by the addition of 50 μL capsaicin (100 nM final concentration) and plates incubated for an additional 3 min. Data were collected over the entire time course and analyzed using Excel and the curve-fitting formula GraphPad Prism.
# human recombinant TRPV1 [2] = target: T1, human recombinant TRPV1; test: TRPV1 pH-Based Assay (Protocol 2, Ca2+ response in TRPV1/CHO cells, Fura-2); assay type: cell-based; conditions: TRPV1/CHO cells, pH 5.0-5.1; read-out: IC50 value by the pH-Based Assay
# Procedure: as §1
# TRPV1/CHO cells were seeded in the 96-well clear-bottom black-wall plate (Nunc) at densities of 1-2×10^4 cells/well and grown in 100 μL of culture medium (alpha-MEM supplemented with 10% FBS, 20 mM HEPES, 1 mg/mL geneticin and 1% antibiotic-antimycotic mixed stock solution) for 1-2 days before the experiment.
# (2) The 96-well plate was incubated at 37° C. for 45 min.
# (3) The loading buffer was removed from each well. […] The wells were then refilled with 80 μL of measuring buffer.
# (4) After an incubation at 4° C. for 15 min, the 96-well plate was transferred to FDSS-3000 (Hamamatsu Photonics, Japan).
# (5) The Fura-2 fluorescent intensity was monitored at a wavelength of 340 nm and at 380 nm, respectively, at a rate of 0.5 Hz for a total of 240 seconds. After 16 time points (32 sec) of baseline detection, 20 μL of agonist solution was added to each well. The final volume was 100 μL/well.
# (6) Fluorescence intensity ratio refers to the fluorescence intensity at 340 nm over the fluorescence intensity at 380 nm at a particular time point. The baseline was set as the average of the fluorescent intensity ratios for the first 16 time points before the addition of agonist solution. The maximum response was the highest fluorescent intensity ratio during the 60 time points following addition of agonist solution.
# (7) Maximal signal ratios from each well were calculated as output data using the FDSS-3000 analysis program. Data were analyzed using Excel (Microsoft) and XLfit (idbs) software.
# Two different agonist solutions with different H2SO4 concentrations were used for the pH assay (FIG. 3A). For one half of a 96-well plate one agonist solution was used, for the other half the other agonist solution. The agonist solutions were obtained by diluting sulfuric acid (H2SO4, 1M) with measuring buffer. The concentrations for the two agonist solutions were determined as described above in Section 2 of Protocol 2.
# The sulfuric acid concentrations between the two agonist solutions differed by 0.5 mM. […] After 1:4 dilution of the agonist solutions, the final sulfuric acid concentration was 3.2 mM and 3.3 mM, respectively. The resulting pH value for the pH assay was 5.0 to 5.1.
# Test compounds were dissolved in DMSO to yield 1 mM stock solutions. […] The thereby-obtained solutions were further diluted in measuring buffer (1:100) as 10× stock serial dilutions with a DMSO concentration of 1%. 10 μL of a 10× stock was added into each well at step 3.3.(4) of Protocol 2.
# Steps (1) and (2) of this Assay were the same as steps 2.2.(1) and 2.2.(2) of Protocol 2, respectively.
# (3) The cells were washed twice with 150 μL of measuring buffer (mentioned in 2.2.(3) of Protocol 2, no probenecid). The wells were subsequently refilled with 70 μL of measuring buffer.
# (4) Either 10 μl of measuring buffer or 10 μL of 10× stock serial dilution of test compound (described in 3.2. above) were applied to each well. Usually, only one test compound was tested per 96-well plate. The number of replicates per 96-well plate for a particular antagonist at a particular concentration was 7×2 since two different sulfuric acid concentrations were used per 96-well plate (N=7×2) (FIG. 3).
# Step (5) was the same as 2.2.(4) above.
# (6) Fura-2 fluorescent intensity was monitored as described in 2.2.(5) above. After 16 time points of baseline detection, 20 μL of agonist solution (measuring buffer titrated with H2SO4 to yield pH 5.0-5.1 when mixed 1:4 with the measuring buffer containing test compound) was added to each well (final volume 100 μL/well).
# Steps (7) and (8) were as described in 2.2.(6) and 2.2.(7) above, respectively.
# (1) The pH values of the buffer in the wells of A1→H1 and A7→H7 (longitudinally; FIG. 3) were measured one by one using a portable pH meter.
# [3] = compounds of the invention, read-out: TRPV1 IC50 Potency (Capsaicin-Based Assay), Compound IC50
# [4] = read-out: IC50 value by the Capsaicin-Based Assay
# T1 sequence (Q8NER1 whole entry): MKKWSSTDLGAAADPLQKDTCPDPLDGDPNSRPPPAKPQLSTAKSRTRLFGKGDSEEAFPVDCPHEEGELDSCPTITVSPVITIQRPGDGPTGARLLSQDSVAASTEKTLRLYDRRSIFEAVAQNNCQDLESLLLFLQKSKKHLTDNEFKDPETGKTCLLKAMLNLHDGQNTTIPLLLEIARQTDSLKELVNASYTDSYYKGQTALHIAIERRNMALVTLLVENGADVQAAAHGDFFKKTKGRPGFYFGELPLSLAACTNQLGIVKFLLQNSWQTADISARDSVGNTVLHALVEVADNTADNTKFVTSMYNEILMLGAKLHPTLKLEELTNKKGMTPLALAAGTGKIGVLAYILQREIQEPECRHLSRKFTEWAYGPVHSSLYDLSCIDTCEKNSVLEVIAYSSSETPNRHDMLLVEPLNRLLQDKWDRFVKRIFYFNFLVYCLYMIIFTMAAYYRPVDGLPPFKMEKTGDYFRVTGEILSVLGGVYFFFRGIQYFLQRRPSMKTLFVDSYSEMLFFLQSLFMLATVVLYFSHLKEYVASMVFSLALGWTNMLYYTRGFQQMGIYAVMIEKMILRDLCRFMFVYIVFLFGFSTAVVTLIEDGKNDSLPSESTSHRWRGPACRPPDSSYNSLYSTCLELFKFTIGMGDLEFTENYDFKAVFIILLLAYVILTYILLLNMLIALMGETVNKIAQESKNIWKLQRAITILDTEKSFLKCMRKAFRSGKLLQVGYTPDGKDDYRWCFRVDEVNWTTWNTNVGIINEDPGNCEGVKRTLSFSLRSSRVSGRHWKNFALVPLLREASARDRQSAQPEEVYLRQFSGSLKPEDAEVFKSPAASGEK
Structure (SMILES),IC50 (human recombinant TRPV1 [1]; [3]) [µM],IC50 (human recombinant TRPV1 [2]) [µM],IC50 (human recombinant TRPV1 [1]; [4]) [µM],"IC50 (human recombinant TRPV1 [1]; comparative compounds, read-out: TRPV1 IC50 Potency (Capsaicin-Based Assay), Comparative compound IC50) [µM]"
Cc1cc(NC(=O)N2CC=C(c3ncc(C[C@@H](O)CO)cc3Cl)CC2)ccc1C(F)(F)F [drawing 501],0.04,–,–,–
Cc1ccc2nc(NC(=O)N3CCN(c4ncc(C[C@H](O)CO)cc4F)C[C@@H]3C)sc2c1 [AEP],–,≤ 0.05,≤ 0.05,–
Cc1cc2nc(NC(=O)N3CCN(c4ncc(C[C@@H](O)CO)cc4Cl)CC3)sc2cc1C [AEH],–,≤ 0.05,≤ 0.05,–
"C[C@@H]1CN(c2ncc(C[C@@H](O)CO)cc2Cl)CCN1C(=O)Nc1nc2ccc(F)cc2s1 [ACU, (R)-4-(3-chloro-5-((R)-2,3-dihydroxypropyl)pyridin-2-yl)-N-(6-fluorobenzo[d]thiazol-2-yl)-2-methylpiperazine-1-carboxamide]",–,–,≤ 0.05,–
"Cc1cc(NC(=O)N2CCC(F)(c3ncc(C[C@@H](O)CO)cc3Cl)CC2)ccc1C(F)(F)F [ACI, (R)-4-(3-Chloro-5-(2,3-dihydroxypropyl)pyridin-2-yl)-4-fluoro-N-(3-methyl-4-(trifluoromethyl)phenyl)piperidine-1-carboxamide]",–,≤ 0.05,≤ 0.05,–
CC1(C)CN(c2ncc(C[C@@H](O)CO)cc2F)CCN1C(=O)Nc1nc2ccc(F)cc2s1 [AFZ],–,≤ 0.05,≤ 0.05,–
"Cc1cc(C[C@@H](O)CO)cnc1N1CCN(C(=O)Nc2nc3ccc(Cl)cc3s2)[C@H](C)C1 [ADJ, (R)-N-(6-chlorobenzo[d]thiazol-2-yl)-4-{5-[(R)-2,3-dihydroxypropyl]-3-methylpyridin-2-yl}-2-methylpiperazine-1-carboxamide]",–,≤ 0.05,≤ 0.05,–
Cc1ccc2nc(NC(=O)N3CCN(c4ncc(C[C@H](O)CO)cc4Cl)C[C@@H]3C)sc2c1 [AEC],–,≤ 0.05,≤ 0.05,–
C[C@H]1CN(C(=O)Nc2nc3ccc(Cl)cc3s2)CCN1c1ncc(C[C@H](O)CO)cc1F [AGK],–,≤ 0.05,≤ 0.05,–
C[C@H]1CN(c2ncc(C[C@@H](O)CO)cc2Cl)CCN1C(=O)Nc1nc2ccccc2s1 [AEA],–,≤ 0.05,≤ 0.05,–
C[C@H]1CN(c2ncc(C[C@@H](O)CO)cc2Cl)CCN1C(=O)Nc1nc2ccc(Cl)cc2s1 [AEE],–,≤ 0.05,≤ 0.05,–
C[C@H]1CN(c2ncc(C[C@@H](O)CO)cc2F)CCN1C(=O)Nc1nc2cc(F)c(F)cc2s1 [AEY],–,≤ 0.05,≤ 0.05,–
CC1(C)CN(c2ncc(C[C@H](O)CO)cc2F)CCN1C(=O)Nc1nc2ccc(F)cc2s1 [AFT],–,≤ 0.05,≤ 0.05,–
"Cc1cc(NC(=O)N2CCC(F)(c3ncc(C[C@@H](O)CO)cc3F)CC2)ccc1C(F)(F)F [ACO, (R)-4-(5-(2,3-dihydroxypropyl)-3-fluoropyridin-2-yl)-4-fluoro-N-(3-methyl-4-(trifluoromethyl)phenyl)piperidine-1-carboxamide]",–,≤ 0.05,≤ 0.05,–
"Cc1cc(NC(=O)N2CCC(F)(c3ncc(C[C@H](O)CO)cc3C)CC2)ccc1C(F)(F)F [ACN, (S)-4-(5-(2,3-dihydroxypropyl)-3-methylpyridin-2-yl)-4-fluoro-N-(3-methyl-4-(trifluoromethyl)phenyl)piperidine-1-carboxamide]",–,≤ 0.05,≤ 0.05,–
C[C@H]1CN(C(=O)Nc2nc3ccc(Cl)cc3s2)CCN1c1ncc(C[C@@H](O)CO)cc1F [AFR],–,≤ 0.05,≤ 0.05,–

# Further lines, results first:
IC50 (human recombinant TRPV1 [1]; [3]) [µM],IC50 (human recombinant TRPV1 [2]) [µM],IC50 (human recombinant TRPV1 [1]; [4]) [µM],"IC50 (human recombinant TRPV1 [1]; comparative compounds, read-out: TRPV1 IC50 Potency (Capsaicin-Based Assay), Comparative compound IC50) [µM]",Structure (SMILES)
–,≤ 0.05,≤ 0.05,–,Cc1ccc2nc(NC(=O)N3CCN(c4ncc(C[C@@H](O)CO)cc4Cl)C[C@@H]3C)sc2c1 [ADZ]
0.008,–,–,–,C[C@@H]1CN(c2ncc(C[C@@H](O)CO)cc2F)CCN1C(=O)Nc1nc2ccc(Cl)cc2s1 [drawing 500]
–,≤ 0.05,≤ 0.05,–,"Cc1cc(NC(=O)N2CCC(F)(c3ncc(C[C@@H](O)CO)cc3Cl)CC2)ccc1OC(F)(F)F [ACJ, (R)-4-(3-Chloro-5-(2,3-dihydroxypropyl)pyridin-2-yl)-4-fluoro-N-(3-methyl-4-(trifluoromethoxy)phenyl)piperidine-1-carboxamide]"
–,≤ 0.05,≤ 0.05,–,C[C@H]1CN(C(=O)Nc2nc3cc(F)c(F)cc3s2)CCN1c1ncc(C[C@@H](O)CO)cc1F [AFS]
0.046,–,–,–,Cc1cc(NC(=O)N2CCC(F)(c3ncc(C[C@H](O)CO)cc3F)CC2)ccc1OC(F)(F)F [drawing 496]
–,≤ 0.05,≤ 0.05,–,C[C@@H]1CN(c2ncc(C[C@H](O)CO)cc2F)CCN1C(=O)Nc1nc2ccc(F)cc2s1 [AGZ]
–,≤ 0.05,≤ 0.05,–,"Cc1cc(NC(=O)N2CCC(F)(c3ncc(C[C@@H](O)CO)cc3C)CC2)ccc1C(F)(F)F [ACE, (R)-4-(5-(2,3-dihydroxypropyl)-3-methylpyridin-2-yl)-4-fluoro-N-(3-methyl-4-(trifluoromethyl)phenyl)piperidine-1-carboxamide]"
–,–,–,0.1,Cc1cc(NC(=O)N2CCC(F)(c3ncccc3F)CC2)ccc1OC(F)(F)F [reference compound]
–,≤ 0.05,≤ 0.05,–,"C[C@@H]1CN(c2ncc(C[C@@H](O)CO)cc2F)CCN1C(=O)Nc1nc2ccc(F)cc2s1 [ADH, (R)-4-(5-[(R)-2,3-dihydroxypropyl)-3-fluoropyridin-2-yl)-N-(6-fluorobenzo[d]thiazol-2-yl]-2-methylpiperazine-1-carboxamide]"
–,≤ 0.05,≤ 0.05,–,C[C@H]1CN(c2ncc(C[C@H](O)CO)cc2Cl)CCN1C(=O)Nc1nc2ccccc2s1 [AED]
–,≤ 0.05,≤ 0.05,–,"Cc1cc(NC(=O)N2CC=C(c3ncc(C[C@@H](O)CO)cc3Cl)CC2)ccc1OC(F)(F)F [AAS, (R)-4-(3-Chloro-5-(2,3-dihydroxypropyl)pyridin-2-yl)-N-(3-methyl-4-(trifluoromethoxy)phenyl)-5,6-dihydropyridine-1(2H)-carboxamide]"
–,≤ 0.05,≤ 0.05,–,"Cc1cc(NC(=O)N2CCC(F)(c3ncc(C[C@H](O)CO)cc3Cl)CC2)ccc1OC(F)(F)F [ACT, (S)-4-(3-Chloro-5-(2,3-dihydroxypropyl)pyridin-2-yl)-4-fluoro-N-(3-methyl-4-(trifluoromethoxy)phenyl)piperidine-1-carboxamide]"
–,≤ 0.05,≤ 0.05,–,C[C@H]1CN(c2ncc(C[C@H](O)CO)cc2F)CCN1C(=O)Nc1nc2ccc(Cl)cc2s1 [AEN]
0.116,–,–,–,O=C(Nc1nc2ccc(F)cc2s1)N1CCC(F)(c2ncc(C[C@H](O)CO)cc2Cl)CC1
